Read-outs that look alike come from different tables or passages of the source.
Experiments:
ALK = biological target: T1, ALK (Homo sapiens, UniProt Q9UM73); assay: ALK Kinase Assay (ELISA/TRF, PLC-γ substrate); type: biochemical; settings: read-out: ALK Potency
T1 construct: host or cells: baculovirus expression system
How it was run: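 Time-resolved fluorescence ELISA using Eu-N1 PT66 antibody to detect phosphorylated PLC-γ (coated at 10 μg/mL). Enzyme at 30 ng/ml ALK; 15 min incubation, 37° C.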

JAK2 = biological target: T2, JAK2 (Homo sapiens, UniProt O60674); assay: Recombinant Human JAK2 Kinase Assay (TRF); type: biochemical; settings: read-out: JAK2 Potency
T2 construct: host or cells: baculovirus expression system
T2 sequence (O60674 whole entry): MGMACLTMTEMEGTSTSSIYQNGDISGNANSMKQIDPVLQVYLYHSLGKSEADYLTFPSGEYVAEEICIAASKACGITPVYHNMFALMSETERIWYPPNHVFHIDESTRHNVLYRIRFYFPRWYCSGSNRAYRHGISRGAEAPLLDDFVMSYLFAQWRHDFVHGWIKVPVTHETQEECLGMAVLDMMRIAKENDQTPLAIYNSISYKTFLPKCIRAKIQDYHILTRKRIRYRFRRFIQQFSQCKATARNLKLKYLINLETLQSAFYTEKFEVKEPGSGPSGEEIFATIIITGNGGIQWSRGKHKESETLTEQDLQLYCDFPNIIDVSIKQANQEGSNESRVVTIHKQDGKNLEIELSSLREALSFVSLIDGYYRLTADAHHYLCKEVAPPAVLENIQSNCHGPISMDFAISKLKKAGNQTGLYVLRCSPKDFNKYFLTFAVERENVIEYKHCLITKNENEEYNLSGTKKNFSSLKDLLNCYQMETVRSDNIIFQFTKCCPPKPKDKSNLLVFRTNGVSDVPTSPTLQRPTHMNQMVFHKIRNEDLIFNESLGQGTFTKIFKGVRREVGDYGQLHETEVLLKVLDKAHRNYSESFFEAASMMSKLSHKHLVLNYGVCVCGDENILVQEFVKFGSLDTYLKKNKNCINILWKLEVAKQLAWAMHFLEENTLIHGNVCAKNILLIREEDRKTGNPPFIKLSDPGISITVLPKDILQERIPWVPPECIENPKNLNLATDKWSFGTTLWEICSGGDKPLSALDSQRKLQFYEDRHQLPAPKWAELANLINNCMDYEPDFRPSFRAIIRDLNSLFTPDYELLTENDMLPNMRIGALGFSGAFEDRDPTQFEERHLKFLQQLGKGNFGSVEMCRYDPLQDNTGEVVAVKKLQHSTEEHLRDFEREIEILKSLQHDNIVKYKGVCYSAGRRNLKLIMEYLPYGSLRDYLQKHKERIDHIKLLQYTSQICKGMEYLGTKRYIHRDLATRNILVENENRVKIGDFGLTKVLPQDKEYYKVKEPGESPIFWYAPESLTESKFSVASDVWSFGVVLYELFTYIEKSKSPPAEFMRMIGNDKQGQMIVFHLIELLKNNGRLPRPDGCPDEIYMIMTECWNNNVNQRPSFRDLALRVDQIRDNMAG
How it was run: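 Baculovirus-expressed JAK2 (15 ng/ml) phosphorylated a biotinylated 15-mer peptide captured on Neutravidin-coated plates, in 20 mM HEPES pH 7.2 with 0.2 μM ATP, 1 mM MnCl2, 0.1% BSA and 2.5% DMSO. Reaction ran 20 min at room temperature; phosphopeptide was detected by time-resolved fluorescence with Eu-N1-labelled PY100 antibody.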

[1] = ALK kinase inhibition, 1 μM ATP
[2] = JAK2 kinase inhibition, 0.2 μM ATP

T1 sequence (Q9UM73 19-1620): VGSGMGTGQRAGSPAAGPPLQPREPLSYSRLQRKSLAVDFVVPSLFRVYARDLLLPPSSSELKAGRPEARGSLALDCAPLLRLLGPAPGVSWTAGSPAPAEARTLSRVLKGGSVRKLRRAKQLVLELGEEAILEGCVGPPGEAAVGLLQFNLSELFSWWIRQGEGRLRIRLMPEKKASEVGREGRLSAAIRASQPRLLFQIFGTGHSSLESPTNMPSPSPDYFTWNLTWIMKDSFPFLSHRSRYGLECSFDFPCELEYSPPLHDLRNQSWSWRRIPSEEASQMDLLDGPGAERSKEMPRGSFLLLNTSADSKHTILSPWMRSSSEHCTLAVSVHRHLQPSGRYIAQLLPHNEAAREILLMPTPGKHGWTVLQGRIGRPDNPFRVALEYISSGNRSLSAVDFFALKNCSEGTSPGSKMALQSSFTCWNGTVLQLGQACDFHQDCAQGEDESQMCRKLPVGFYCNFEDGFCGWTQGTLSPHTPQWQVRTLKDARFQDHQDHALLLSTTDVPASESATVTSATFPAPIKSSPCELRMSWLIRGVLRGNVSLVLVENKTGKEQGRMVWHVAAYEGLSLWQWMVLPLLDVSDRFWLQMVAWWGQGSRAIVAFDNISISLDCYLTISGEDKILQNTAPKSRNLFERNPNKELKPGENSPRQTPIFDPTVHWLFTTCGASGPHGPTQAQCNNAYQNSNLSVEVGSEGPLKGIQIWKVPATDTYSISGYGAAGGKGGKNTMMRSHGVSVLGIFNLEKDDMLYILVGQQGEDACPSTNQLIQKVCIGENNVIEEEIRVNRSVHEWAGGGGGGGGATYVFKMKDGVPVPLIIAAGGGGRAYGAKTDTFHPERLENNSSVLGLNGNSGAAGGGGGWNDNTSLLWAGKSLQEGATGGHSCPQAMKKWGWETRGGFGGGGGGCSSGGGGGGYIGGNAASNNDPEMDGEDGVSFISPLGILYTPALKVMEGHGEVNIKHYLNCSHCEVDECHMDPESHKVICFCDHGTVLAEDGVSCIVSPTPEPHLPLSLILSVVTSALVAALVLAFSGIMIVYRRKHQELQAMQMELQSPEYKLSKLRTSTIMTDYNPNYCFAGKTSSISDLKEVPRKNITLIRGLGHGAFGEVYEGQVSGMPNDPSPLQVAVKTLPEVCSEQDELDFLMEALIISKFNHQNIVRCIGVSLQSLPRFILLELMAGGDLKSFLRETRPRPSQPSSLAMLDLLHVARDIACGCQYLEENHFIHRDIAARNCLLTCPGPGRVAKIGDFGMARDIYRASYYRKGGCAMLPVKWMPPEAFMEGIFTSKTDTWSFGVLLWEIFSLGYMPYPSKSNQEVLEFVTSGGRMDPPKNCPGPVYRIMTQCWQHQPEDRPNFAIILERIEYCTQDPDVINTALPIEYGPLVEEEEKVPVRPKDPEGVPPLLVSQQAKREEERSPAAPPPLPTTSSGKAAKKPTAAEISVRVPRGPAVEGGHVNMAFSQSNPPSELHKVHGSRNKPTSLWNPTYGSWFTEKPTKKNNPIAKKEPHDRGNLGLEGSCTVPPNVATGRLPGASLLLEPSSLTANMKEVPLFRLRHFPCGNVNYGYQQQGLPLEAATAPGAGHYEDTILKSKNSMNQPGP

IC50 (ALK; [1]) [nM]	IC50 (JAK2; [2]) [nM]	IC50 (ALK; ALK Kinase Inhibition) [nM]	IC50 (JAK2; JAK2 Kinase Inhibition) [nM]	Compound
> 10000	< 100	–	–	COc1ccc(-c2ccc3cnc(Nc4ccc(Cl)c(CN5CCOCC5)c4)nn23)cn1 [Example 973, (4-Chloro-3-morpholin-4-ylmethyl-phenyl)-[7-(6-methoxy-pyridin-3-yl)-pyrrolo[2,1-f][1,2,4]triazin-2-yl]-amine]
< 100	< 100	–	–	COc1cc2c(cc1Nc1ncc3ccc(-c4ccccc4OC)n3n1)CN(C(=O)CN)C2 [Example 878, 2-Amino-1-{5-methoxy-6-[7-(2-methoxy-phenyl)-pyrrolo[2,1-f][1,2,4]triazin-2-ylamino]-1,3-dihydro-isoindol-2-yl}-ethanone]
–	–	< 100	< 100	COc1ccc(Cl)cc1-c1ccc2cnc(Nc3ccc(N4CCCC(N5CCOCC5)C4)cc3)nn12 (stereo not shown) [Example 344, [7-(5-Chloro-2-methoxy-phenyl)-pyrrolo[2,1-f][1,2,4]triazin-2-yl]-[4-(3-morpholin-4-yl-piperidin-1-yl)-phenyl]-amine]
–	–	100 to 1000	< 100	CN1CCN(C(=O)c2cccc(Nc3ncc4ccc(-c5cccc(Cl)c5)n4n3)c2)CC1 [Example 340, {3-[7-(3-Chloro-phenyl)-pyrrolo[2,1-f][1,2,4]triazin-2-ylamino]-phenyl}-(4-methyl-piperazin-1-yl)-methanone]
< 100	100 to 1000	–	–	COc1cc(N2CCCN(C[C@@H](C)O)CC2)ccc1Nc1ncc2ccc(-c3ccccc3N(C)S(C)(=O)=O)n2n1 [Example 772, N-[2-(2-{4-[4-((R)-2-Hydroxy-propyl)-[1,4]diazepan-1-yl]-2-methoxy-phenylamino}-pyrrolo[2,1-f][1,2,4]triazin-7-yl)-phenyl]-N-methyl-methanesulfonamide]
< 100	< 100	–	–	CS(=O)(=O)Nc1cccc(-c2ccc3cnc(Nc4ccc(C5CCN(CCO)CC5)cc4)nn23)c1 [Example 958, N-[3-(2-{4-[1-(2-Hydroxy-ethyl)-piperidin-4-yl]-phenylamino}-pyrrolo[2,1-f][1,2,4]triazin-7-yl)-phenyl]-methanesulfonamide]
< 100	< 100	–	–	COc1ccccc1-c1ccc2cnc(Nc3ccc(C4CCN(CC(N)=O)CC4)c(C)c3)nn12 [Example 935, 2-(4-{4-[7-(2-Methoxy-phenyl)-pyrrolo[2,1-f][1,2,4]triazin-2-ylamino]-2-methyl-phenyl}-piperidin-1-yl)-acetamide]
1000 to 10000	< 100	–	–	CC(C)(C)NS(=O)(=O)c1cccc(-c2ccc3cnc(Nc4ccc5c(c4)NC(=O)C5)nn23)c1 [Example 652, N-tert-Butyl-3-[2-(2-oxo-2,3-dihydro-1H-indol-6-ylamino)-pyrrolo[2,1-f][1,2,4]triazin-7-yl]-benzenesulfonamide]
< 100	100 to 1000	–	–	COc1cc(N2CCCN(C3CCN(C)CC3)CC2)ccc1Nc1ncc2ccc(-c3ccccc3N(C)S(C)(=O)=O)n2n1 [Example 790, N-[2-(2-{2-Methoxy-4-[4-(1-methyl-piperidin-4-yl)-[1,4]diazepan-1-yl]-phenylamino}-pyrrolo[2,1-f][1,2,4]triazin-7-yl)-phenyl]-N-methyl-methanesulfonamide]
100 to 1000	100 to 1000	–	–	COc1cc([C@@H]2CCN(C(=O)OC(C)(C)C)C[C@@H]2O)ccc1Nc1ncc2ccc(-c3ccccc3OC)n2n1 (racemic) [Example 834, (±)-(3R,4S)-3-Hydroxy-4-{3-methoxy-4-[7-(2-methoxy-phenyl)-pyrrolo[2,1-f][1,2,4]triazin-2-ylamino]-phenyl}-piperidine-1-carboxylic acid tert-butyl ester]
100 to 1000	< 100	–	–	Cc1nc2ccc(Nc3ncc4ccc(-c5cccc(S(=O)(=O)NC(C)(C)C)c5)n4n3)cc2n1C [Example 1331, N-tert-Butyl-3-[2-(2,3-dimethyl-3H-benzimidazol-5-ylamino)-pyrrolo[2,1-f][1,2,4]triazin-7-yl]-benzenesulfonamide]
< 100	100 to 1000	–	–	COc1cc(C2CCN(CCF)CC2)ccc1Nc1ncc2ccc(-c3ccccc3OC)n2n1 [Example 791, {4-[1-(2-Fluoro-ethyl)-piperidin-4-yl]-2-methoxy-phenyl}-[7-(2-methoxy-phenyl)-pyrrolo[2,1-f][1,2,4]triazin-2-yl]-amine]
1000 to 10000	< 100	–	–	CC(=O)N1CCCCc2ccc(Nc3ncc4ccc(-c5ccccc5N(C)S(C)(=O)=O)n4n3)cc21 [Example 630, N-{2-[2-(1-Acetyl-2,3,4,5-tetrahydro-1H-benzo[b]azepin-8-ylamino)-pyrrolo[2,1-f][1,2,4]triazin-7-yl]phenyl}-N-methylmethanesulfonamide]
100 to 1000	< 100	–	–	N#CCCn1cccc1-c1ccc2cnc(Nc3ccc(N4CCOCC4)cc3)nn12 [Example 1293, 3-{2-[2-(4-Morpholin-4-yl-phenylamino)-pyrrolo[2,1-f][1,2,4]triazin-7-yl]-pyrrol-1-yl}-propionitrile]
100 to 1000	< 100	–	–	CN1CCN(c2ccc(Nc3ncc4ccc(-c5ccc(S(C)(=O)=O)cc5)n4n3)cn2)CC1 [Example 1110, [7-(4-Methanesulfonyl-phenyl)-pyrrolo[2,1-f][1,2,4]triazin-2-yl]-[6-(4-methyl-piperazin-1-yl)-pyridin-3-yl]-amine]
< 100	< 100	–	–	CN1CCN(c2ccc(Nc3ncc4ccc(Cc5ccccc5)n4n3)cc2)CC1 [Example 1140, (7-Benzyl-pyrrolo[2,1-f][1,2,4]triazin-2-yl)-[4-(4-methyl-piperazin-1-yl)-phenyl]-amine]

Compound	IC50 (ALK; [1]) [nM]	IC50 (JAK2; [2]) [nM]	IC50 (ALK; ALK Kinase Inhibition) [nM]	IC50 (JAK2; JAK2 Kinase Inhibition) [nM]
CN1C2CCC1CC(c1ccc(Nc3ncc4ccc(-c5cccc(S(=O)(=O)NC(C)(C)C)c5)n4n3)cc1)C2 (stereo not shown) [Example 943, N-tert-Butyl-3-{2-[4-(8-methyl-8-aza-bicyclo[3.2.1]oct-3-yl)-phenylamino]-pyrrolo[2,1-f][1,2,4]triazin-7-yl}-benzenesulfonamide]	100 to 1000	< 100	–	–
